Article PMC4775916 (Antimicrobial Agents and Chemotherapy, 2016)
Several values for one entry are separate records, joined by “and”; a condition that tells them apart may be missing. Equal entries are not always repeated. Where two headings read alike, the source gives them in different places.

Key:
[1] = system: CC(=O)OCC1=C(C(=O)O)N2C(=O)[C@@H](NC(=O)Cc3cccs3)[C@H]2SC1; assay: purified protein, by the assay type; type: biochemical; conditions: other: 50 mM HEPES pH 7.2, apparent for ampicillin and ceftazidime
Protocol: (§1) The hydrolysis of a representative panel of β-lactam substrates was monitored at their respective absorbance wavelengths. The wavelengths and extinction coefficients used were previously described ([34]). The assays were carried out using 50 mM HEPES buffer (pH 7.2) supplemented with 1 μg/ml bovine serum albumin (BSA), 1 μM ZnSO4, and 0.01% Triton X-100. In the case of VIM-1, C-terminally His6-tagged VIM-1 was used for kinetic analyses. Note that no differences were observed between the activities of untagged VIM-1 and C-terminally His6-tagged VIM-1 for the selected antibiotics (data not shown). The initial rates were obtained from the changes in absorbance at various substrate concentrations. Steady-state kinetic parameters (Km and kcat) were determined by fitting the initial velocity data to the Michaelis-Menten equation using GraphPad Prism 5.01 software (see Table S4 in the supplemental material).

[2] = system: CC(C)(O/N=C(\C(=O)N[C@@H]1C(=O)N2C(C(=O)[O-])=C(C[n+]3ccccc3)CS[C@H]12)c1csc(N)n1)C(=O)O; assay: purified protein, by the assay type; type: biochemical; conditions: other: 50 mM HEPES pH 7.2, apparent for ampicillin and ceftazidime
Protocol: as §1

[3] = system: CO[C@@]1(NC(=O)Cc2cccs2)C(=O)N2C(C(=O)O)=C(COC(N)=O)CS[C@@H]21; assay: purified protein, by the assay type; type: biochemical; conditions: other: 50 mM HEPES pH 7.2, apparent for ampicillin and ceftazidime
Protocol: as §1

[4] = system: C[C@@H](O)[C@H]1C(=O)N2C(C(=O)O)=C(SCCN=CN)C[C@H]12; assay: purified protein, by the assay type; type: biochemical; conditions: other: 50 mM HEPES pH 7.2, apparent for ampicillin and ceftazidime
Protocol: as §1

[5] = system: C[C@@H](O)[C@H]1C(=O)N2C(C(=O)O)=C(S[C@@H]3CN[C@H](C(=O)N(C)C)C3)[C@H](C)[C@H]12; assay: purified protein, by the assay type; type: biochemical; conditions: other: 50 mM HEPES pH 7.2, apparent for ampicillin and ceftazidime
Protocol: as §1

[6] = system: O=C(Cc1cccs1)N[C@@H]1C(=O)N2C(C(=O)O)=C(/C=C/c3ccc([N+](=O)[O-])cc3[N+](=O)[O-])CS[C@H]12; assay: purified protein, by the assay type; type: biochemical; conditions: other: 50 mM HEPES pH 7.2, apparent for ampicillin and ceftazidime
Protocol: as §1

[7] = system: O=C(Cc1cccs1)N[C@@H]1C(=O)N2C(C(=O)O)=C(/C=C/c3ccc([N+](=O)[O-])cc3[N+](=O)[O-])CS[C@H]12; assay: Nitrocefin hydrolysis kinetics before thermal denaturation and after refolding; type: biochemical; conditions: other: nitrocefin hydrolysis
Protocol: Circular dichroism (CD) analyses were carried out using a Chirascan CD spectrophotometer (Applied Photophysics) equipped with a Peltier temperature-controlled cell holder. CD measurements were collected in the range of 185 to 260 nm; spectra were baseline corrected and smoothed using a Savitzky-Golay filter. Data were normalized at 207 nm to account for differences in protein concentrations ([38]), and the estimation of secondary structure content was performed with Dichro Web ([39]) using the CONTIN Analysis Programme (reference set 6) ([40]). Melting temperatures (Tm) of the recombinant enzymes were determined by monitoring temperature-induced changes in the CD signal at 222 nm. The temperature was increased by 1°C per min, and the CD signal was recorded at temperatures ranging from 25°C to 92°C. The samples were then cooled from 92°C to 25°C at the same rate, and a CD spectrum of the refolded proteins was determined. The activity of the enzymes was recorded before thermal denaturation and after refolding by monitoring nitrocefin hydrolysis. The thermal denaturation data were fitted to a Boltzmann sigmoidal curve by using GraphPad Prism 5.0 software. CD spectra and thermal denaturation curves are shown in Fig. 2 and in Tables S2 and S3 in the supplemental material.

[8] = target: T1, VIM-38 (Pseudomonas aeruginosa, UniProt A0A0F7KYQ8, A128K/A265V/E202A/H201L/K257T/S205R); assay: Steady-state kinetics of β-lactam substrate hydrolysis; type: biochemical; conditions: 50 mM HEPES pH 7.2, apparent for ampicillin and ceftazidime; for Km: read-out: Mean Km ± SD VIM-38
T1 construct: The N- and C- terminal residues of the mature enzymes are labelled 26; His6 with HRV3C cleavage site (pET-28a) (N, cleaved yes); made in house; host or cells: E. coli BL21(DE3)
Protocol: as §1

[9] = target: T2, VIM-5 (Pseudomonas aeruginosa, UniProt A0A0F7KYQ8, A128K/E202A/H201L/K257T/S205R); assay: as above; type: biochemical; conditions: for kcat VIM-5 / Km: 50 mM HEPES pH 7.2, apparent for ampicillin and ceftazidime; for Km: read-out: Mean Km ± SD VIM-5
T2 construct: His6 with HRV3C cleavage site (pET-28a) (N, cleaved yes); made in house; host or cells: E. coli BL21(DE3)
Protocol: as §1

[10] = target: T3, VIM-1 (Pseudomonas aeruginosa, UniProt A0A0F7KYQ8); assay: as above; type: biochemical
T3 construct: The N- and C- terminal residues of the mature enzymes are labelled 26; made in house
Protocol: as §1

[11] = target: T4, VIM-2 (Escherichia coli, UniProt Q5U7L7); type: biochemical
T4 construct: His6 (N, cleaved yes); made in house
Protocol: as §1

[12] = target: T3, VIM-1; conditions: previous studies ref Franceschini et al. (4), cited from earlier work; for Km: read-out: Km VIM-1 (previous study)
[13] = system: VIM-2; parameters: method as in Poirel et al. (5); conditions: previous studies ref Poirel et al. (5), cited from earlier work; for Km: read-out: Km VIM-2 (previous study)
[14] = system: VIM-5; parameters: method as in Garcar et al. (6); conditions: previous studies ref Garcar et al. (6), cited from earlier work; for Km: read-out: Km VIM-5 (previous study)
[15] = system: CC(=O)OCC1=C(C(=O)O)N2C(=O)[C@@H](NC(=O)Cc3cccs3)[C@H]2SC1; assay: Steady-state kinetics of β-lactam substrate hydrolysis; type: biochemical; conditions: other: C-terminally His6-tagged VIM-1, 50 mM HEPES pH 7.2, apparent for ampicillin and ceftazidime
Protocol: as §1

[16] = system: CC(C)(O/N=C(\C(=O)N[C@@H]1C(=O)N2C(C(=O)[O-])=C(C[n+]3ccccc3)CS[C@H]12)c1csc(N)n1)C(=O)O; assay: as above; type: biochemical; conditions: other: C-terminally His6-tagged VIM-1, 50 mM HEPES pH 7.2, apparent for ampicillin and ceftazidime
Protocol: as §1

[17] = system: CO[C@@]1(NC(=O)Cc2cccs2)C(=O)N2C(C(=O)O)=C(COC(N)=O)CS[C@@H]21; assay: as above; type: biochemical; conditions: other: C-terminally His6-tagged VIM-1, 50 mM HEPES pH 7.2, apparent for ampicillin and ceftazidime
Protocol: as §1

[18] = system: C[C@@H](O)[C@H]1C(=O)N2C(C(=O)O)=C(SCCN=CN)C[C@H]12; assay: as above; type: biochemical; conditions: other: C-terminally His6-tagged VIM-1, 50 mM HEPES pH 7.2, apparent for ampicillin and ceftazidime
Protocol: as §1

[19] = system: C[C@@H](O)[C@H]1C(=O)N2C(C(=O)O)=C(S[C@@H]3CN[C@H](C(=O)N(C)C)C3)[C@H](C)[C@H]12; assay: as above; type: biochemical; conditions: other: C-terminally His6-tagged VIM-1, 50 mM HEPES pH 7.2, apparent for ampicillin and ceftazidime
Protocol: as §1

[20] = system: O=C(Cc1cccs1)N[C@@H]1C(=O)N2C(C(=O)O)=C(/C=C/c3ccc([N+](=O)[O-])cc3[N+](=O)[O-])CS[C@H]12; assay: as above; type: biochemical; conditions: other: C-terminally His6-tagged VIM-1, 50 mM HEPES pH 7.2, apparent for ampicillin and ceftazidime
Protocol: as §1

[21] = C-terminally His6-tagged VIM-1; 50 mM HEPES pH 7.2; apparent for ampicillin and ceftazidime
[22] = 50 mM HEPES pH 7.2; apparent for ampicillin and ceftazidime

Molecule: VIM-2 (Escherichia coli)
- Km [1]: 50 ± 6 µM
- kcat [1]: 210 s⁻¹
- kcat/Km [1]: 4.2e+06 M⁻¹ s⁻¹
- Km [2]: 120 ± 20 µM
- kcat [2]: 2 s⁻¹
- kcat/Km [2]: 20000 M⁻¹ s⁻¹
- Km [3]: 40 ± 10 µM
- kcat [3]: 50 s⁻¹
- kcat/Km [3]: 1.3e+06 M⁻¹ s⁻¹
- Km [4]: 33 ± 4 µM and 30 ± 4 µM
- kcat [4]: 95 s⁻¹ and 100 s⁻¹
- kcat/Km [4]: 3.3e+06 M⁻¹ s⁻¹
- Km [5]: 20 ± 4 µM
- kcat [5]: 7 s⁻¹
- kcat/Km [5]: 300000 M⁻¹ s⁻¹
- Km [6]: 50 ± 5 µM
- kcat [6]: 510 s⁻¹
- kcat/Km [6]: 1.02e+07 M⁻¹ s⁻¹
- Km ([7]; after refolding): 15 ± 1 µM
- kcat ([7]; after refolding): 130 s⁻¹
- kcat/Km ([7]; after refolding): 8.7e+06 M⁻¹ s⁻¹

Molecule: CC(=O)OCC1=C(C(=O)O)N2C(=O)[C@@H](NC(=O)Cc3cccs3)[C@H]2SC1 [Cephalothin]
- kcat VIM-38 [8]: 120 s⁻¹
- Km [8]: 60 ± 8 µM
- kcat VIM-5 [9]: 200 s⁻¹
- Km [9]: 100 ± 8 µM

Molecule: CC(C)(O/N=C(\C(=O)N[C@@H]1C(=O)N2C(C(=O)[O-])=C(C[n+]3ccccc3)CS[C@H]12)c1csc(N)n1)C(=O)O [Ceftazidime]
- kcat VIM-1 [10, 21]: 3 s⁻¹
- kcat VIM-38 [8]: 4 s⁻¹
- Km [8]: 430 ± 140 µM
- kcat VIM-5 [9]: 4 s⁻¹
- Km [9]: 340 ± 80 µM
- fold-higher hydrolysis efficiency by VIM-5 than previously reported ([9]; this study versus previously reported ([26])): 10 fold
- kcat VIM-2 [11, 22]: 2 s⁻¹
- kcat VIM-1 (previous study) [12]: 60 s⁻¹
- Km [12]: 794 µM
- kcat VIM-2 (previous study) [13]: 89 s⁻¹
- Km [13]: 98 µM
- kcat VIM-5 (previous study) [14]: 0.2 s⁻¹
- Km [14]: 149 µM

Molecule: C[C@@H](O)[C@H]1C(=O)N2C(C(=O)O)=C(S[C@@H]3CN[C@H](C(=O)N(C)C)C3)[C@H](C)[C@H]12 [Meropenem]
- kcat VIM-1 [10, 21]: 50 s⁻¹
- Km for VIM-1 fold higher than that for VIM-2 ([10]; VIM-1 versus VIM-2): > 6 fold
- kcat for VIM-1 fold higher than those for VIM-2 ([10]; VIM-1 versus VIM-2): > 7 fold
- kcat VIM-38 [8]: 10 s⁻¹
- Km [8]: 30 ± 4 µM
- kcat VIM-5 [9]: 16 s⁻¹ and 20 s⁻¹
- Km [9]: 70 ± 10 µM
- kcat VIM-2 [11, 22]: 7 s⁻¹
- kcat VIM-1 (previous study) [12]: 13 s⁻¹
- Km [12]: 48 µM
- kcat VIM-2 (previous study) [13]: 1.4 s⁻¹
- Km [13]: 5 µM
- kcat VIM-5 (previous study) [14]: 2.4 s⁻¹
- Km [14]: 49 µM

Molecule: VIM-1 (Pseudomonas aeruginosa PAO1)
- Km [15]: 140 ± 10 µM
- kcat [15]: 450 s⁻¹
- kcat/Km [15]: 3.2e+06 M⁻¹ s⁻¹
- Km [16]: 180 ± 60 µM
- kcat [16]: 3 s⁻¹
- kcat/Km [16]: 20000 M⁻¹ s⁻¹
- Km [17]: 170 ± 50 µM
- kcat [17]: 30 s⁻¹
- kcat/Km [17]: 200000 M⁻¹ s⁻¹
- Km [18]: 60 ± 10 µM
- kcat [18]: 30 s⁻¹
- kcat/Km [18]: 500000 M⁻¹ s⁻¹
- Km [19]: 130 ± 20 µM
- kcat [19]: 50 s⁻¹
- kcat/Km [19]: 400000 M⁻¹ s⁻¹
- Km [20]: 15 ± 1 µM
- kcat [20]: 130 s⁻¹
- kcat/Km [20]: 8.7e+06 M⁻¹ s⁻¹
- Km ([7]; after refolding): 26 ± 3 µM
- Km ([7]; pre-heating): 20 ± 2 µM
- kcat ([7]; pre-heating): 7 s⁻¹
- kcat/Km ([7]; pre-heating): 300000 M⁻¹ s⁻¹

Molecule: CC1(C)S[C@@H]2[C@H](NC(=O)[C@H](N)c3ccccc3)C(=O)N2[C@H]1C(=O)O [Ampicillin]
- kcat VIM-1 [10, 21]: 122 s⁻¹ and 120 s⁻¹
- Km ([10]; C-terminally His6-tagged VIM-1; 50 mM HEPES pH 7.2; apparent for ampicillin and ceftazidime; read-out: Mean Km ± SD VIM-1): > 1000 µM
- Km ([10]; read-out: Mean Km ± SD VIM-1; C-terminally His6-tagged VIM-1; 50 mM HEPES pH 7.2; apparent for ampicillin and ceftazidime): > 300 µM
- kcat VIM-38 [8]: 170 s⁻¹
- Km [8]: 380 ± 80 µM
- Km ([8]; listed as ampicillin): > 300 µM
- kcat VIM-5 [9]: 230 s⁻¹
- Km [9]: > 1000 µM
- Km ([9]; listed as ampicillin): > 300 µM
- kcat VIM-2 [11, 22]: 180 s⁻¹
- Km ([11]; 50 mM HEPES pH 7.2; apparent for ampicillin and ceftazidime; read-out: Mean Km ± SD VIM-2): > 500 µM
- Km ([11]; read-out: Mean Km ± SD VIM-2; 50 mM HEPES pH 7.2; apparent for ampicillin and ceftazidime): > 300 µM
- kcat VIM-1 (previous study) [12]: 37 s⁻¹
- Km [12]: 917 µM
- kcat VIM-5 (previous study) [14]: 14 s⁻¹
